Earlier results on one compound are cited in patent US20170095445A1 (priority 2012, published 2017).

The subject of this data set is asthma induced by sensitization and challenge with ovalbumin. Conditions: mouse, in vivo.

The structures appear in SMILES notation. Residues, ends and D or L forms follow the SMILES beside them.

Consider `CC(=O)NC(CS)C(=O)N1CCCC1C(=O)NC(CS)C(N)=O` (stereo not drawn) [R-901, 1-(2-acetamido-3-mercaptopropanoyl)-N-(1-amino-3-mercapto-1-oxopropan-2-yl) pyrrolidine-2-carboxamide] (Ac-Cys-Pro-Cys-NH2; configuration not given here), for which the “efficacy in murine model of asthma” value is recorded as “efficacious”.
